# Test results taken from US20220339143A1, “TAK-925 FOR USE IN TREATING NARCOLEPSY” (Takeda Pharmaceutical Company Limited, priority 2019, published 2022).
# Assay: Single dose PK in healthy subjects (Cohorts 1, 2, S1 and S2), plasma
# Assay type: in vivo, human
# Description: This study investigates (i) the safety and tolerability of Compound A (methyl (2R,3S)-3-((methylsulfonyl)amino)-2-(((cis-4-phenylcyclohexyl)oxy)methyl)piperidine-1-carboxylate) when a single dose given as a 9 hour continuous IV infusion is administered to healthy adults, healthy elderly subjects and patients with narcolepsy type 1 (NT1); (ii) the pharmacokinetics of Compound A when a single dose given as a 9 hour continuous IV infusion is administered to healthy adults, healthy elderly subjects and patients with narcolepsy type 1; and (iii) the pharmacodynamics (PD) effects of Compound A, primarily by evaluation of the sleep latency on MWT when a single dose given as a 9 hour continuous IV infusion is administered to patients with narcolepsy type 1.
# Pharmacokinetics: Concentrations of Compound A in plasma, and CSF, and pharmacokinetics parameters.
# On average, the time to reach the plateau appeared to be approximately 3 to 4 hours after the start of infusion. […] After switching off the IV infusion, Compound A plasma concentrations declined rapidly and in a biphasic manner with a mean terminal disposition phase t1/2z ranging approximately from 3.4 to 5.1 hours across all doses. […] Table 5 provides a summary of plasma concentrations of Compound A after a single IV infusion in healthy subjects. Table 6 provides a summary of pharmacokinetic parameters of Compound A after a single IV infusion in healthy subjects.
# [1] = 7 mg single IV infusion, healthy subjects
# [2] = 7 mg, 0.17 hr After End of Infusion
# [3] = 14 mg single IV infusion, healthy subjects
# [4] = 28 mg single IV infusion, healthy subjects
# [5] = 28 mg, 0.17 hr After End of Infusion
# [6] = 28 mg, 0.33 hr After End of Infusion
# [7] = 28 mg, 0.5 hr After End of Infusion
# [8] = 28 mg, 0.75 hr After End of Infusion
# [9] = 28 mg, 1 hr After End of Infusion
# [10] = 28 mg, 1.5 hr After End of Infusion
# [11] = 28 mg, 2 hr After End of Infusion
# [12] = 56 mg single IV infusion, healthy subjects
# [13] = 56 mg, 0.17 hr After End of Infusion
# [14] = 56 mg, 0.33 hr After End of Infusion
# [15] = 56 mg, 0.5 hr After End of Infusion
# [16] = 56 mg, 0.75 hr After End of Infusion
# [17] = 56 mg, 1 hr After End of Infusion
# [18] = 56 mg, 1.5 hr After End of Infusion
structure (smiles),measurement,setting,value
"COC(=O)N1CCC[C@H](NS(C)(=O)=O)[C@@H]1CO[C@H]1CC[C@@H](c2ccccc2)CC1 [Compound A, methyl (2R,3S)-3-((methylsulfonyl)amino)-2-(((cis-4-phenylcyclohexyl)oxy)methyl)piperidine-1-carboxylate]",AUCinf D Mean,[1],20.48 ng·h/mL/mg
same,AUCinf D Median,[1],20.80 ng·h/mL/mg
same,CL Median,[1],48.10 L/h
same,Cmax D Mean,[1],2.416 ng/mL/mg
same,Cmax D Median,[1],2.360 ng/mL/mg
same,Vss Median,[1],100.0 L
same,t½z Mean,[1],4.120 h
same,t½z Median,[1],3.220 h
same,"Plasma concentration, Mean",[2],9.360 ng/mL
same,"Plasma concentration, Minimum",[2],7.91 ng/mL
same,"Plasma concentration, Q1",[2],9.090 ng/mL
same,"Plasma concentration, Mean","7 mg, Predose",0.000 ng/mL
same,"Plasma concentration, Minimum","7 mg, Predose",0.00 ng/mL
same,"Plasma concentration, Q1","7 mg, Predose",0.000 ng/mL
same,AUCinf D Mean,[3],23.70 ng·h/mL/mg
same,AUCinf D Median,[3],23.05 ng·h/mL/mg
same,Cmax D Mean,[3],2.647 ng/mL/mg
same,Cmax D Median,[3],2.640 ng/mL/mg
same,t½z Mean,[3],4.498 h
same,t½z Median,[3],4.170 h
same,AUCinf D Mean,[4],18.90 ng·h/mL/mg
same,AUCinf D Median,[4],19.60 ng·h/mL/mg
same,Cmax D Mean,[4],2.076 ng/mL/mg
same,Cmax D Median,[4],2.120 ng/mL/mg
same,t½z Mean,[4],5.142 h
same,t½z Median,[4],5.060 h
same,"Plasma concentration, Maximum",[5],34.9 ng/mL
same,"Plasma concentration, Mean",[5],32.52 ng/mL
same,"Plasma concentration, Median",[5],32.80 ng/mL
same,"Plasma concentration, Minimum",[5],28.2 ng/mL
same,"Plasma concentration, Q1",[5],32.70 ng/mL
same,"Plasma concentration, Q3",[5],34.00 ng/mL
same,"Plasma concentration, Maximum",[6],32.2 ng/mL
same,"Plasma concentration, Mean",[6],28.04 ng/mL
same,"Plasma concentration, Median",[6],27.20 ng/mL
same,"Plasma concentration, Minimum",[6],25.4 ng/mL
same,"Plasma concentration, Q1",[6],26.70 ng/mL
same,"Plasma concentration, Q3",[6],28.70 ng/mL
same,"Plasma concentration, Maximum",[7],33.7 ng/mL
same,"Plasma concentration, Mean",[7],25.36 ng/mL
same,"Plasma concentration, Median",[7],24.20 ng/mL
same,"Plasma concentration, Minimum",[7],20.9 ng/mL
same,"Plasma concentration, Q1",[7],21.30 ng/mL
same,"Plasma concentration, Q3",[7],26.70 ng/mL
same,"Plasma concentration, Maximum",[8],23.9 ng/mL
same,"Plasma concentration, Mean",[8],20.82 ng/mL
same,"Plasma concentration, Median",[8],19.50 ng/mL
same,"Plasma concentration, Minimum",[8],19.0 ng/mL
same,"Plasma concentration, Q1",[8],19.10 ng/mL
same,"Plasma concentration, Q3",[8],22.60 ng/mL
same,"Plasma concentration, Maximum",[9],21.4 ng/mL
same,"Plasma concentration, Mean",[9],18.56 ng/mL
same,"Plasma concentration, Median",[9],18.00 ng/mL
same,"Plasma concentration, Minimum",[9],15.6 ng/mL
same,"Plasma concentration, Q1",[9],17.80 ng/mL
same,"Plasma concentration, Q3",[9],20.00 ng/mL
same,"Plasma concentration, Maximum",[10],18.9 ng/mL
same,"Plasma concentration, Mean",[10],16.70 ng/mL
same,"Plasma concentration, Median",[10],18.00 ng/mL
same,"Plasma concentration, Minimum",[10],13.6 ng/mL
same,"Plasma concentration, Q1",[10],14.90 ng/mL
same,"Plasma concentration, Q3",[10],18.10 ng/mL
same,"Plasma concentration, Maximum",[11],13.4 ng/mL
same,"Plasma concentration, Mean",[11],10.53 ng/mL
same,"Plasma concentration, Median",[11],9.600 ng/mL
same,"Plasma concentration, Minimum",[11],8.06 ng/mL
same,"Plasma concentration, Q1",[11],8.990 ng/mL
same,"Plasma concentration, Q3",[11],12.60 ng/mL
same,AUCinf D Mean,[12],19.27 ng·h/mL/mg
same,AUCinf D Median,[12],18.75 ng·h/mL/mg
same,Cmax D Mean,[12],2.200 ng/mL/mg
same,Cmax D Median,[12],2.170 ng/mL/mg
same,t½z Mean,[12],3.860 h
same,t½z Median,[12],3.760 h
same,"Plasma concentration, Maximum",[13],79.9 ng/mL
same,"Plasma concentration, Mean",[13],63.58 ng/mL
same,"Plasma concentration, Median",[13],62.50 ng/mL
same,"Plasma concentration, Minimum",[13],54.5 ng/mL
same,"Plasma concentration, Q1",[13],55.60 ng/mL
same,"Plasma concentration, Q3",[13],66.50 ng/mL
same,"Plasma concentration, Mean",[14],54.37 ng/mL
same,"Plasma concentration, Median",[14],53.25 ng/mL
same,"Plasma concentration, Minimum",[14],44.7 ng/mL
same,"Plasma concentration, Q1",[14],45.00 ng/mL
same,"Plasma concentration, Mean",[15],50.33 ng/mL
same,"Plasma concentration, Median",[15],50.10 ng/mL
same,"Plasma concentration, Minimum",[15],38.4 ng/mL
same,"Plasma concentration, Q1",[15],40.90 ng/mL
same,"Plasma concentration, Mean",[16],45.77 ng/mL
same,"Plasma concentration, Median",[16],47.20 ng/mL
same,"Plasma concentration, Minimum",[16],33.3 ng/mL
same,"Plasma concentration, Q1",[16],36.90 ng/mL
same,"Plasma concentration, Mean",[17],41.83 ng/mL
same,"Plasma concentration, Median",[17],39.80 ng/mL
same,"Plasma concentration, Minimum",[17],30.1 ng/mL
same,"Plasma concentration, Q1",[17],34.80 ng/mL
same,"Plasma concentration, Mean",[18],33.63 ng/mL
same,"Plasma concentration, Median",[18],31.35 ng/mL
same,"Plasma concentration, Minimum",[18],27.4 ng/mL
same,"Plasma concentration, Q1",[18],28.40 ng/mL
